Patent US20050164882A1, “Method for increasing the resistance of plants to the phytotoxicity of agrochemicals” (priority 2002, published 2005)
Blank lines part the entries; values can stand above or below the molecule they belong to.

Key:
Rice cv. “Koshihikari” = experiment: Effect on plant growth: plant height (stunting) of rice clumps after seedbox spray and transplanting into the field; assay type: in vivo; details: 200 g of active ingredient A per hectare; three weeks after the treatment
Description: Rice cv. “Koshihikari” was sown in a seedbox and grown for 24 days under controlled warm and moist conditions in controlled-environment cabinets and in the greenhouse. Two days before the rice was transplanted into the field, each of the seedboxes was sprayed to runoff point with preparations of the active ingredient in the concentrations mentioned hereinbelow in the form of an aqueous suspension made with a stock solution consisting of 10% active ingredient, 85% cyclohexanone and 5% emulsifier. The seedboxes were subsequently cultured in the greenhouse for a further 2 days until the rice was manually transplanted into the field at a rate of 5 clumps per m^2.
Three weeks after the treatment, the plant height of the rice clumps was measured and compared with untreated rice plants. The extent of plant stunting is a measure for the plant-damaging effect of substances on the root system.

[1] = tested on: Echinochloa crus-galli (barnyardgrass, ECHCG); experiment: Greenhouse post-emergence phytotoxicity, barnyardgrass; assay type: in vivo; details: Table 2a, application rate 0.0039 kg/ha, scale 0 to 100
Description: (§1) The experimental period extended over 2 to 4 weeks.

[2] = tested on: Oryza sativa (rice, ORYSA); experiment: Greenhouse post-emergence phytotoxicity, rice; details: Table 2a
Description: The active ingredients were prepared separately or jointly as a 10% emulsion in a mixture of 85% by weight of cyclohexanone, 5% by weight of Nekanil® LN (Lutensol® AP6, wetter with emulsifying and dispersing action based on ethoxylated alkylphenols) and 10% by weight of Wettol® EM (nonionic emulsifier based on ethoxylated castor oil) and diluted with water to give the desired concentration.
The culture containers used were plastic pots containing loamy sand with approximately 3.0% humus as substrate. The seeds of the test plants were sown separately for each species.
The test plants were grown separately as seedlings and transplanted into the experimental containers a few days before the treatment.
Depending on the species, the plants were kept at temperatures of from 10 to 25° C. or 20 to 35° C. The experimental period extended over 2 to 4 weeks. During this time, the plants were tended, and their response to the individual treatments was evaluated.
The phytotoxicity was evaluated using a scale of from 0 to 100. In this context, 100 means complete destruction of at least the aerial parts, and 0 means no damage or normal course of growth.

[3] = tested on: Pharbitis purpurea (morningglory, PHBPU); experiment: Greenhouse post-emergence phytotoxicity, morningglory; assay type: in vivo; details: scale 0 to 100
Description: as §1

[4] = tested on: Triticum aestivum (spring wheat, TRZAS); experiment: Greenhouse post-emergence phytotoxicity, spring wheat; assay type: in vivo; details: Table 2b, scale 0 to 100
Description: as §1

[5] = tested on: Chenopodium album (pigweed, CHEAL); experiment: Greenhouse post-emergence phytotoxicity, pigweed; assay type: in vivo; details: Table 2b, application rate 0.0313 kg/ha, scale 0 to 100
Description: as §1

stunting (plant height compared with untreated rice plants) (Rice cv. “Koshihikari”): 15%
Compound: C[C@H](Nc1c(-c2c(F)cc(F)cc2F)c(Cl)nc2ncnn12)C(F)(F)F [A, [5-chloro-6-(2,4,6-trifluorophenyl)-[1,2,4]triazolo[1,5-a]pyrimidin-7-yl]-((S)-2,2,2-trifluoro-1-methylethyl)amine]

Compound: Cc1c(C(=O)c2cnn(C)c2O)ccc(S(C)(=O)=O)c1C1=NOCC1 [B, [3-(4,5-dihydroisoxazol-3-yl)-4-methane-sulfonyl-2-methylphenyl]-(5-hydroxy-1-methyl-1H-pyrazol-4-yl)-methanone]
Pytotoxicity ECHCG [1]: 90
Pytotoxicity ORYSA ([2]; application rate 0.0039 kg/ha, scale 0 (no damage) to 100 (complete destruction)): 20

Compound: FC(F)(F)c1ccc(-c2nccc(Oc3cccc(C(F)(F)F)c3)n2)cc1 [C, 4-(3-trifluoromethylphenoxy)-2-(4-trifluoromethylphenyl)pyrimidine]
Pytotoxicity PHBPU ([3]; Table 2a, application rate 0.0078 kg/ha): 98
Pytotoxicity PHBPU ([3]; Table 2a, application rate 0.0156 kg/ha): 98
Pytotoxicity PHBPU ([3]; Table 2b, application rate 0.0078 kg/ha): 98
Pytotoxicity PHBPU ([3]; Table 2b, application rate 0.0156 kg/ha): 98
Pytotoxicity TRZAS ([4]; application rate 0.0078 kg/ha): 20
Pytotoxicity TRZAS ([4]; application rate 0.0156 kg/ha): 25
Pytotoxicity TRZAS ([4]; application rate 0.0313 kg/ha): 30
Pytotoxicity CHEAL [5]: 98
Pytotoxicity ORYSA ([2]; application rate 0.0078 kg/ha, scale 0 to 100): 10
Pytotoxicity ORYSA ([2]; application rate 0.0156 kg/ha, scale 0 to 100): 10
